Measured values as given in patent US11084826B2, “RSV antiviral pyrazolo- and triazolo-pyrimidine compounds” (Janssen Sciences Ireland Unlimited Company, priority 2015, dated 2021).

Tested on: not given
Assay: not given
Conditions: not given
With `CCc1cc(C(=O)N2CCCCC[C@H]2C)nc2cc(-c3ccc(-c4ncc(C(=O)O)s4)cc3F)nn12` (racemic) [Compound F43] the melting point was 177.53 °C.
`C[C@@H]1CCCCCN1C(=O)c1cc(C2(C)CC2)n2nc(-c3ccc(OCC(=O)O)cc3F)cc2n1` (racemic) [Compound F48] showed a melting point of 204.93 °C.
For `C[C@@H]1CCCCCN1C(=O)c1cc(C2(C)CC2)n2nc(-c3ccc4cc(C(=O)O)c(=O)oc4c3F)cc2n1` (racemic) [Compound F49], the melting point was 218.14 °C.
`C[C@@H]1CCCCCN1C(=O)c1cc(C2(C)CC2)n2nc(-c3ccc4c(c3F)OCC(C(=O)O)=C4)cc2n1` (racemic) [Compound F51] showed a melting point of 261.88 °C.
In the case of `C[C@@H]1CCCCCN1C(=O)c1cc(C2CCC2)n2nc(-c3ccc4cc(C(=O)O)c(=O)oc4c3F)cc2n1` (racemic) [Compound F53], the melting point is reported as 175.52 °C.
Work on `CCc1cc(C(=O)N2CCc3sccc3C2C)nc2cc(-c3ccc(-c4ccc(C(=O)O)cn4)cc3F)nn12` (racemic) [Compound F60] yielded a melting point of 270.54 °C.
Work on `C[C@@H]1c2ccccc2CCN1C(=O)c1cc(C2CC2)n2nc(-c3cccc(/C=C/C(=O)O)c3F)cc2n1` [Compound M27] yielded a melting point of 202.04 °C.

Tested on: rgRSV224 virus
Assay: Antiviral activity: inhibition of rgRSV224 (GFP-expressing RSV) replication in HeLa cells, GFP expression read-out
Format: cell-based, respiratory syncytial virus (RSV)
Conditions: human respiratory syncytial virus, HeLa, read-out: RSV HELA pEC50, rgRSV224 virus (MOI=1) in HeLa cells, GFP read-out (converted)
Procedure: (§1) Black 384-well clear-bottom microtiter plates (Corning, Amsterdam, The Netherlands) were filled via acoustic drop ejection using the echo liquid handler (Labcyte, Sunnyvale, Calif.). 200 nL of compound stock solutions (100% DMSO) were transferred to the assay plates. 9 serial 4-fold dilutions of compound were made, creating per quadrant the same compound concentration. The assay was initiated by adding 10 μL of culture medium to each well (RPMI medium without phenol red, 10% FBS-heat inactivated, 0.04% gentamycin (50 mg/mL). All addition steps are done by using a multidrop dispenser (Thermo Scientific, Erembodegem, Belgium). Next, rgRSV224 virus (MOI=1) diluted in culture medium was added to the plates. rgRSV224 virus is an engineered virus that includes an additional GFP gene (Hallak LK, Spillmann D, Collins PL, Peeples Me. Glycosaminoglycan sulfation requirements for respiratory syncytial virus infection; Journal of virology (2000), 74(22), 10508-13) and was in-licensed from the NIH (Bethesda, Md., USA). Finally, 20 μL of a HeLa cell suspension (3,000 cells/well) were plated. Medium, virus- and mock-infected controls were included in each test. The wells contain 0.05% DMSO per volume. Cells were incubated at 37° C. in a 5% CO2 atmosphere. Three days post-virus exposure, viral replication was quantified by measuring GFP expression in the cells by an in house developed MSM laser microscope (Tibotec, Beerse, Belgium). The EC50 was defined as the 50% inhibitory concentration for GFP expression. In parallel, compounds were incubated for three days in a set of white 384-well microtiter plates (Corning) and the cytotoxicity of compounds in HeLa cells was determined by measuring the ATP content of the cells using the ATPlite kit (Perkin Elmer, Zaventem, Belgium) according to the manufacturer's instructions. The CC50 was defined as the 50% concentration for cytotoxicity.
For `CCc1cc(C(=O)N2CCCCC[C@H]2C)nc2cc(-c3ccc(-c4ncc(C(=O)O)s4)cc3F)nn12` (racemic) [Compound F43], the EC50 was 61.7 nM.
`C[C@@H]1CCCCCN1C(=O)c1cc(C2(C)CC2)n2nc(-c3ccc(OCC(=O)O)cc3F)cc2n1` (racemic) [Compound F48] gave an EC50 of 437 nM.
Compound `C[C@@H]1CCCCCN1C(=O)c1cc(C2(C)CC2)n2nc(-c3ccc4cc(C(=O)O)c(=O)oc4c3F)cc2n1` (racemic) [Compound F49] has an EC50 of 26.3 nM.
`C[C@@H]1CCCCCN1C(=O)c1cc(C2(C)CC2)n2nc(-c3ccc4c(c3F)OCC(C(=O)O)=C4)cc2n1` (racemic) [Compound F51] showed an EC50 of 27.5 nM.
`C[C@@H]1CCCCCN1C(=O)c1cc(C2CCC2)n2nc(-c3ccc4cc(C(=O)O)c(=O)oc4c3F)cc2n1` (racemic) [Compound F53] gave an EC50 of 36.3 nM.
`CCc1cc(C(=O)N2CCc3sccc3C2C)nc2cc(-c3ccc(-c4ccc(C(=O)O)cn4)cc3F)nn12` (racemic) [Compound F60] gave an EC50 of 45.7 nM.
Compound `CCc1cc(C(=O)N2CCCCCC2C)nc2cc(-c3ccc(NS(=O)(=O)C4CC4)cc3F)nn12` (stereo not drawn) [Compound D2] has an EC50 of 603 nM.
In the case of `CCc1cc(C(=O)N2CCCCCC2C)nc2cc(-c3cc(NC(=O)C4CC4)ccc3F)nn12` (stereo not drawn) [Compound E12], the EC50 is reported as 447 nM.
`CCc1cc(C(=O)N2CCCCCC2C)nc2cc(-c3ccc(-c4cccnc4)cc3)nn12` (stereo not drawn) [Compound F2] showed an EC50 of 2950 nM.
For `CCc1cc(C(=O)N2CCCCCC2C)nc2cc(-c3ccc(-c4cn[nH]c4)cc3F)nn12` (stereo not drawn) [Compound F6], the EC50 was 355 nM.
With `CCc1cc(C(=O)N2CCCCCC2C)nc2cc(-c3ccc(-c4cnc(C)n4C)cc3F)nn12` (stereo not drawn) [Compound F11] the EC50 was 1350 nM.
With `CCc1cc(C(=O)N2CCCCCC2C)nc2cc(-c3ccc(-c4cnn(C5CC5)c4)cc3F)nn12` (stereo not drawn) [Compound F12] the EC50 was 1380 nM.
In the case of `CCc1cc(C(=O)N2CCCCCC2C)nc2cc(-c3ccc(-c4cncn4C)cc3F)nn12` (stereo not drawn) [Compound F13], the EC50 is reported as 562 nM.
Work on `CCc1cc(C(=O)N2CCCCCC2C)nc2cc(-c3ccc(-c4c[nH]cn4)cc3F)nn12` (stereo not drawn) [Compound F16] yielded an EC50 of 145 nM.
For `CCc1cc(C(=O)N2CCCCC[C@H]2C)nc2cc(-c3ccc(-c4cnc(C(=O)O)c(F)c4)cc3F)nn12` [Compound F19], the EC50 was 97.7 nM.
Compound `CCc1cc(C(=O)N2CCc3ccccc3C2C)nc2cc(-c3ccc(-c4ccc(C(=O)O)nc4)cc3F)nn12` (stereo not drawn) [Compound F22] has an EC50 of 35.5 nM.
`CCc1cc(C(=O)N2CCc3ccccc3[C@H]2C)nc2cc(-c3ccc(-c4ccc(C(=O)O)cn4)cc3F)nn12` [Compound F23] showed an EC50 of 40.7 nM.
Compound `CCc1cc(C(=O)N2CCCCC[C@H]2C)nc2cc(-c3ccc(-c4ccc(C(=O)O)nc4)cc3F)nn12` [Compound F24] has an EC50 of 69.2 nM.
Compound `CCc1cc(C(=O)N2CCCCC[C@H]2C)nc2cc(-c3ccc(-c4ccnc(C(=O)O)c4)cc3F)nn12` [Compound F25] has an EC50 of 43.7 nM.
For `C[C@@H]1CCCCCN1C(=O)c1cc(C2CCC2)n2nc(-c3ccc(-c4ccc(C(=O)O)cn4)cc3F)cc2n1` [Compound F32], the EC50 was 28.2 nM.
Compound `CCc1cc(C(=O)N2CCCCC[C@H]2C)nc2cc(-c3cc4ccc(C(=O)O)nc4cc3F)nn12` [Compound F33] has an EC50 of 91.2 nM.
For `CCc1cc(C(=O)N2CCCCC[C@H]2C)nc2cc(-c3ccc([C@H]4CC[C@H](C(=O)O)CC4)cc3F)nn12` [Compound F37], the EC50 was 182 nM.
In the case of `C[C@@H]1CCCCCN1C(=O)c1cc(C2CC2)n2nc(-c3ccc4c(c3F)OCC(C(=O)O)=C4)cc2n1` [Compound F38], the EC50 is reported as 51.3 nM.
Work on `C[C@@H]1c2ccccc2CCN1C(=O)c1cc(C2CC2)n2nc(-c3cccc(/C=C/C(=O)O)c3F)cc2n1` [Compound M27] yielded an EC50 of 11.7 nM.

Tested on: not listed separately
Assay: Cytotoxicity in HeLa cells, ATP content measured with the ATPlite kit
Format: cell-based
Conditions: human, TOX HELA pCC50
Procedure: as §1
With `CCc1cc(C(=O)N2CCCCC[C@H]2C)nc2cc(-c3ccc(-c4ncc(C(=O)O)s4)cc3F)nn12` (racemic) [Compound F43] the CC50 at 3 days was 42.7 µM.
Compound `C[C@@H]1CCCCCN1C(=O)c1cc(C2(C)CC2)n2nc(-c3ccc(OCC(=O)O)cc3F)cc2n1` (racemic) [Compound F48] has a CC50 at 3 days of over 100 µM.
Work on `C[C@@H]1CCCCCN1C(=O)c1cc(C2(C)CC2)n2nc(-c3ccc4cc(C(=O)O)c(=O)oc4c3F)cc2n1` (racemic) [Compound F49] yielded a CC50 at 3 days of 57.5 µM.
Compound `C[C@@H]1CCCCCN1C(=O)c1cc(C2(C)CC2)n2nc(-c3ccc4c(c3F)OCC(C(=O)O)=C4)cc2n1` (racemic) [Compound F51] has a CC50 at 3 days of 57.5 µM.
For `C[C@@H]1CCCCCN1C(=O)c1cc(C2CCC2)n2nc(-c3ccc4cc(C(=O)O)c(=O)oc4c3F)cc2n1` (racemic) [Compound F53], the CC50 at 3 days was 60.3 µM.
`CCc1cc(C(=O)N2CCc3sccc3C2C)nc2cc(-c3ccc(-c4ccc(C(=O)O)cn4)cc3F)nn12` (racemic) [Compound F60] showed a CC50 at 3 days of over 25.1 µM.
Compound `CCc1cc(C(=O)N2CCCCCC2C)nc2cc(-c3ccc(NS(=O)(=O)C4CC4)cc3F)nn12` (stereo not drawn) [Compound D2] has a CC50 at 3 days of over 50.1 µM.
`CCc1cc(C(=O)N2CCCCCC2C)nc2cc(-c3cc(NC(=O)C4CC4)ccc3F)nn12` (stereo not drawn) [Compound E12] gave a CC50 at 3 days of 60.3 µM.
In the case of `CCc1cc(C(=O)N2CCCCCC2C)nc2cc(-c3ccc(-c4cccnc4)cc3)nn12` (stereo not drawn) [Compound F2], the CC50 at 3 days is reported as 38.9 µM.
With `CCc1cc(C(=O)N2CCCCCC2C)nc2cc(-c3ccc(-c4cn[nH]c4)cc3F)nn12` (stereo not drawn) [Compound F6] the CC50 at 3 days was over 25.1 µM.
`CCc1cc(C(=O)N2CCCCCC2C)nc2cc(-c3ccc(-c4cnc(C)n4C)cc3F)nn12` (stereo not drawn) [Compound F11] showed a CC50 at 3 days of over 25.1 µM.
In the case of `CCc1cc(C(=O)N2CCCCCC2C)nc2cc(-c3ccc(-c4cnn(C5CC5)c4)cc3F)nn12` (stereo not drawn) [Compound F12], the CC50 at 3 days is reported as over 25.1 µM.
For `CCc1cc(C(=O)N2CCCCCC2C)nc2cc(-c3ccc(-c4cncn4C)cc3F)nn12` (stereo not drawn) [Compound F13], the CC50 at 3 days was over 25.1 µM.
Work on `CCc1cc(C(=O)N2CCCCCC2C)nc2cc(-c3ccc(-c4c[nH]cn4)cc3F)nn12` (stereo not drawn) [Compound F16] yielded a CC50 at 3 days of over 25.1 µM.
For `CCc1cc(C(=O)N2CCCCC[C@H]2C)nc2cc(-c3ccc(-c4cnc(C(=O)O)c(F)c4)cc3F)nn12` [Compound F19], the CC50 at 3 days was 36.3 µM.
Work on `CCc1cc(C(=O)N2CCc3ccccc3C2C)nc2cc(-c3ccc(-c4ccc(C(=O)O)nc4)cc3F)nn12` (stereo not drawn) [Compound F22] yielded a CC50 at 3 days of 6.92 µM.
With `CCc1cc(C(=O)N2CCc3ccccc3[C@H]2C)nc2cc(-c3ccc(-c4ccc(C(=O)O)cn4)cc3F)nn12` [Compound F23] the CC50 at 3 days was over 25.1 µM.
Work on `CCc1cc(C(=O)N2CCCCC[C@H]2C)nc2cc(-c3ccc(-c4ccc(C(=O)O)nc4)cc3F)nn12` [Compound F24] yielded a CC50 at 3 days of 12.6 µM.
In the case of `CCc1cc(C(=O)N2CCCCC[C@H]2C)nc2cc(-c3ccc(-c4ccnc(C(=O)O)c4)cc3F)nn12` [Compound F25], the CC50 at 3 days is reported as 13.5 µM.
`C[C@@H]1CCCCCN1C(=O)c1cc(C2CCC2)n2nc(-c3ccc(-c4ccc(C(=O)O)cn4)cc3F)cc2n1` [Compound F32] showed a CC50 at 3 days of 32.4 µM.
`CCc1cc(C(=O)N2CCCCC[C@H]2C)nc2cc(-c3cc4ccc(C(=O)O)nc4cc3F)nn12` [Compound F33] showed a CC50 at 3 days of 66.1 µM.
`CCc1cc(C(=O)N2CCCCC[C@H]2C)nc2cc(-c3ccc([C@H]4CC[C@H](C(=O)O)CC4)cc3F)nn12` [Compound F37] gave a CC50 at 3 days of 38 µM.
For `C[C@@H]1CCCCCN1C(=O)c1cc(C2CC2)n2nc(-c3ccc4c(c3F)OCC(C(=O)O)=C4)cc2n1` [Compound F38], the CC50 at 3 days was 36.3 µM.
